Assay results reported in patent US5021597A, “Novel acrylic acid salts, a process for their preparation, pharmaceutical compositions containing them and their use in the medicine” (Richter Gedeon Vegyeszeti Gyar Rt., priority 1989, dated 1991).
Where a name gives a salt, the structure may show the parent alone.

Tests used:
gastric acid secretion = assay: inhibition of gastric acid secretion by using pylorus ligature (Shay); assay type: in vivo, Wistar rat; settings: pretreatment 30 min; for ED50 p.o.: 240 min; for % Inhibition in the amount of the acid at a dose of 25 mg/kg p.o.: Table 4, female Wistar rats
Procedure: (2) Assay of the inhibition of gastric acid secretion by using pylorus ligature [Shay et al., Gastroenterology, 5, 43-61 (1945)]
Before ligating the pylorus the test compounds suspended with Tween were given orally at a volume of 0.5 ml per […] of body weight to female Wistar rats fasted previously for 20 hours. The animals were sacrificed 4 hours after the operation, and the amount of the acid in the stomach was measured by titration with 0.01N sodium hydroxide solution in the presence of phenolphtalein indicator. The pH value of the content of the stomach was measured by using a pH-meter (Radelkis, Type OP-211/1).

[1] = test system: gastric injuries induced by acidic alcohol; assay: gastric injuries induced by acidic alcohol (cytoprotection); assay type: in vivo, rat; settings: acidic alcohol gastric injury, female rats, pretreatment 30 min; for % Inhibition at a dose of 10 mg/kg p.o.: Table 2
Procedure: (1) Assay of gastric injuries induced by acidic alcohol [A. Robert, Gastroenterology, 77, 761-767 (1979)]
Female rats weighing about 120 to 150 g fasted for 24 hours were used in this test. Test compounds suspended with Tween 80 were given orally to the animals through an intragastric tube. After a certain period (pretreatmenttime) acidic alcohol was given through the intragastric tube at a dose or 0.5 ml per 100 g of body weight. The animals were sacrificed after 1 hour, their stomach was removed and incised along the great curve. The length of the reddish-brown strips (haemorrhagic lesions) was measured and the mean total length per stomach was calculated. The biological activity of the test compounds was given compared to the control group.

Campylobacter pylori = assay: activity against Campylobacter pylori by agar diffusion and agar dilution assays; assay type: cell-based; settings: Helicobacter pylori, Campylobacter pylori cultures isolated from 5 different ulcerous patients, read-out: MIC (minimal inhibitory concentration)
Procedure: The activity of the compounds of the present invention against Campylobacter pylori was investigated by agar diffusion and agar dilution assays. The experiments were carried out with Campylobacter pylori cultures isolated from 5 different ulcerous patients.

Compound	ED50 p.o. (gastric acid secretion; Table 3, female Wistar rats) [mg/kg]	ED50 p.o. ([1]; Table 1) [mg/kg]	% Inhibition in the amount of the acid at a dose of 25 mg/kg p.o. (gastric acid secretion) [%]	other results
O=C(O)/C=C/S(=O)(=O)c1ccccc1 [A, bismuth tris [3-phenylsulfonyl-2(E)-propenoate] pentahydrate]				ED50 (gastric acid secretion; Rattus norvegicus, po, 4 h, Table 3, female Wistar rats): 8.6 mg/kg; ED50 ([1]; Rattus norvegicus, po, Table 1): 4 mg/kg
O=C(O)/C=C/S(=O)(=O)c1ccccc1 [C, monoethanolamine salt of 3-phenylsulfonyl-2(E)-propenoic acid]	11.0	3.6		
O=C(O)/C=C/S(=O)(=O)c1ccccc1 [D, bismuth bis [3-phenylsulfonyl-2(E)-propenoate] chloride hexahydrate]	12.0	3.1		MIC (Campylobacter pylori): 250 to 1000 µg/mL
O=C(O)/C=C/S(=O)(=O)c1ccccc1 [E, (S)-arginine salt of 3-phenylsulfonyl-2(E)-propenoic acid]			56	% Inhibition at a dose of 10 mg/kg p.o. [1]: 73%
O=C(O)/C=C/S(=O)(=O)c1ccccc1 [F, (S)-lysine salt of 3-phenylsulfonyl-2(E)-propenoic acid]		4.1	50	
O=C(O)/C=C/Sc1ccccc1 [G, bismuth tris [3-phenylthio-2(E)-propenoate] trihydrate]			15	
O.O.O.O.O=C([O-])/C=C/S(=O)(=O)c1ccccc1.O=C([O-])/C=C/S(=O)(=O)c1ccccc1.[Zn+2] [H, zinc bis [3-phenylsulfonyl-2(E)-propenoate] tetrahydrate]	8.0	3.2		
zinc bis [phenylthio-2(Z)-propenoate] hydrate				% Inhibition at a dose of 10 mg/kg p.o. [1]: 61%
